# Patent US20220218639A1
# Where “and” joins values, the source holds several entries; their conditions need not be identical. Identical values can stand only once.
# Legend:
# plasmin [1] = target: T1, plasmin (Homo sapiens, UniProt P00747); test: S-2251 inhibition assay (Dixon plot), plasmin; type: biochemical; design: purchased Sigma-Aldrich; conditions: for mode of inhibition (plasmin): Dixon plot with S/Vo vs I plot; for Ki: Dixon plot, S-2251 100, 350, 750 μM, enzyme 1.0 μg/mL, PBS pH 7.4, unit inferred; for Pen X-Fold inhibition (Plasmin): Ki of the inhibitor relative to Ki of pentamidine
# T1 sequence (P00747 581-810 limits assumed): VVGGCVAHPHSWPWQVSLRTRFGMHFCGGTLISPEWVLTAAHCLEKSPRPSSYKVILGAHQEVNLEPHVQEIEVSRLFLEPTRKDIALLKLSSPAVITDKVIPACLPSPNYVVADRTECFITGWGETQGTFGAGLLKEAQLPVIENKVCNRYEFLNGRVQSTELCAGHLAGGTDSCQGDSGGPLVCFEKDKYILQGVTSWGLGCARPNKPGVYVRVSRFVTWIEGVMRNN
# T1 sequence (P00747 97-580 partner limits assumed): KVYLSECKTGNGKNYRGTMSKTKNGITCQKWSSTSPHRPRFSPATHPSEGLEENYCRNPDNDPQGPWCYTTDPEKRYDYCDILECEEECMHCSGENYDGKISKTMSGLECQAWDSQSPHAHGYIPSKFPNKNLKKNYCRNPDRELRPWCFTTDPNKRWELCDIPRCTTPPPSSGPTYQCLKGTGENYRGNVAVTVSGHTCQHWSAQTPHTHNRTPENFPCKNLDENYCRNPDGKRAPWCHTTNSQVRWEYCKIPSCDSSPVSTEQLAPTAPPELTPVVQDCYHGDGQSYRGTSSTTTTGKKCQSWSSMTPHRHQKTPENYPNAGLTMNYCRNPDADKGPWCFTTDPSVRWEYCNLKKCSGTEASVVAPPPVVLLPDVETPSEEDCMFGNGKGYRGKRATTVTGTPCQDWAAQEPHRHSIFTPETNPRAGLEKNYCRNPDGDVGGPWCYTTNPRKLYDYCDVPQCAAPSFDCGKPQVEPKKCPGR
# Protocol: Inhibition Assays: Inhibition assays were carried out at a fixed plasmin concentration in the presence of a range of small molecule inhibitor concentrations from (0-1500 μM) and at least three different S-2251 substrate concentrations ranging from (0-750 μM). Ki values for both full length/native plasmin (sigma plasmin) and delta-plasmin for the small molecule inhibitors and nanoparticles were calculated based on the x-axis value at the negative intersection point of the inhibition curves at the different S-2251 substrate concentrations at a constant plasmin concentration. All experiments were carried out in triplicate and data represents means plus or minus standard deviations.
# δ-plasmin = target: T2, δ-plasmin (Homo sapiens, UniProt P00747, DEL181-559); test: S-2251 inhibition assay (Dixon plot), δ-plasmin; type: biochemical; conditions: for mode of inhibition (δ-plasmin): Dixon plot with S/Vo vs I plot; for Ki: Dixon plot, S-2251 100, 350, 750 μM, enzyme 1.0 μg/mL, PBS pH 7.4, unit inferred; for Pen X-Fold inhibition (Delta Plasmin): Ki of the inhibitor relative to Ki of pentamidine
# T2 construct: made in house; host or cells: E. coli (T7 expression system, pET 24b(+))
# T2 sequence (P00747 with tags, fused parts or gaps K528E/G536N/V538P/G539Q/N547D/R549E/L551R/V557I/P558L/Q559E): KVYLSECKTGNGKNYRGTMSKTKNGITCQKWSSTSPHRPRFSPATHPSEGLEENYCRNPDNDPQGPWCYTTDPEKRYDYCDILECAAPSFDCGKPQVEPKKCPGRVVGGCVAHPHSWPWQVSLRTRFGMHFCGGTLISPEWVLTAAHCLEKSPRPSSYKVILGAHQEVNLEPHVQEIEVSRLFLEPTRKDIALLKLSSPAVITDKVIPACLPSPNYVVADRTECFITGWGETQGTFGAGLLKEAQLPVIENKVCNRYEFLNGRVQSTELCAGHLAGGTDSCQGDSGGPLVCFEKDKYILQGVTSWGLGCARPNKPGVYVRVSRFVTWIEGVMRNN
# blood clots = test: Clot digestion assay in serum; conditions: 50% serum, 2 hours room temp, background-corrected
# Protocol: In this Example, blood clot digestion by nanoparticles prepared using 4-carboxybenzamidine conjugated micelles and delta plasmin was analyzed in both PBS and serum.
# Fresh blood was drawn and clotted in glass tubes at 37° C. for 1.5 hours. Clots were then cut, excess liquid was removed via light blotting, and weighed to produce clots of ˜600 mg size. Clots were then transferred to phosphate buffered saline (PBS at pH 7.4) or serum. […] After incubation, the blood clots were again lightly blotted and weighed. Experimental parameters are summarized in Table 3 for the clot digestion assay performed in serum.
# [2] = Enzyme kinetics with S-2251 chromogenic substrate (Lineweaver-Burke plot); type: biochemical; design: Kcat: unit not given here; conditions: for Kcat: S-2251 substrate, PBS pH 7.4, unit not given
# Protocol: Enzyme Kinetic and Inhibition Assays. All enzymatic assays were conducted in phosphate buffered saline (PBS, pH 7.4) at 25° C. on a Molecular Devices SpectraMax Plus 96 well plate reader. The S-2251 assay took advantage of a shift in absorbance of the substrate upon cleaving that could be monitored at a wavelength of 405 nm to determine enzyme kinetics as well as competitive inhibition Ki values for plasmin and its derivatives. […] Initial velocities were determined by the slope of the first 60 seconds of reaction with the S-2251 substrate. All experiments were carried out in triplicate and data represents means plus or minus standard deviations.
# In this Example, the predicted kinetic characteristics of plasmin and delta-plasmin were compared. KM, Vmax and Kcat were determined for both full length plasmin and delta plasmin using a Lineweaver-Burke plot in which the concentration of plasmin was held constant across a range of S-2251 substrate concentrations (0-750 μM). Initial velocities for each data point were determined by the slope of the first 60 seconds of reaction with the S-2251 substrate following absorbance at 405 nm.
# The Km and Kcat for the two forms of plasmin were determined utilizing an S2251 chromogenic substrate.
# plasmin [3] = target: T1, plasmin; test: Fluorescence titration dissociation constant (Kd) assay; type: binding; design: purchased Sigma-Aldrich; host or cells: human plasma; conditions: emission 370 nm, PBS pH 7.4, no S-2251; unit inferred; read-out: Kd by fluorescence titration (PB Fl Ki)
# Protocol: Fluorescence Titration Dissociation Constant (Kd) Assay. Plasmin was titrated with increasing concentrations of 4-aminobenzamidine from 0-1000 μM in PBS buffer at pH 7.4. By monitoring the increase in fluorescence emission (excitation 280 nm, emission at 370 nm) from 4-aminobenzamdine associated plasmin, a direct determination of its dissociation constant (Kd) can be made. Fitting the data to a sigmoid the Kd value for 4-aminobenzamidine to sigma plasmin is the concentration of inhibitor at which 50% (or 0.5 or half maximum fluorescent emission is reached) intersects with the fit.
# Fluorescent titration assay was carried out as described above for determining the Kd, which is the same as the Ki in the case of competitive inhibition, for the 4-aminobenzamidine derivative to plasmin in the absence of the S-2251 substrate.
# p-Aminobenzamidine's fluorescent properties enable the implementation of a fluorescent titration assay to directly determine its binding affinity to plasmin. […] At a constant plasmin concentration, increasing amounts of p-aminobenzamidine were titrated into the sample monitoring the fluorescence emission at 370 nm (FIG. 10A).
Compound,mode of inhibition (plasmin) (plasmin [1]),Ki (plasmin [1]),Pen X-Fold inhibition (Plasmin) (plasmin [1]),mode of inhibition (δ-plasmin) (δ-plasmin),Ki (δ-plasmin),Pen X-Fold inhibition (Delta Plasmin) (δ-plasmin),clot digestion (blood clots) [%],"Vmax ([2]; S-2251 0-750 μM, PBS pH 7.4, 25° C.)","Km ([2]; S-2251 0-750 μM, PBS pH 7.4, 25° C., unit inferred) [µM]",Kcat [2],Kcat ([2]; listed as δ-plasmin),Kd (plasmin [3]) [µM],stronger inhibition than the next best inhibitor (plasmin) (plasmin [1]; from Ki values) [fold],stronger inhibition than the next best inhibitor (delta plasmin) (δ-plasmin; from Ki values) [fold]
N=C(N)c1ccc(C(=O)O)cc1 [4-Carboxybenzamidine],purely competitive,292 µM and 293 µM,134.2,purely competitive,302 ± 19.2 µM,75.8,–,–,–,–,–,–,–,–
Delta Plasmin: Recombinant plasmin variant with K2-K5 deleted; kringle 1 linked directly with the catalytic domain (SEQ ID NO:2 zymogen),–,–,–,–,–,–,7.175,19.5,325 ± 8.43,778.2,778.21±1.51,–,–,–
N=C(N)c1ccc(CN)cc1 [4-Aminomethyl Benzamidine],purely competitive,> 1000 µM and 1070 µM,493.0,purely competitive,> 1000 µM and 1410 µM,353.8,–,–,–,–,–,–,–,–
N=C(N)c1ccc(N)cc1 [4-Aminobenzamidine],purely competitive,51.9 ± 2.38 µM,23.8,purely competitive,60.6 ± 6.72 µM,15.2,–,–,–,–,–,53.5 ± 4.42,–,–
N=C(N)c1ccccc1 [Benzamidine],purely competitive,–,–,purely competitive,–,–,–,–,–,–,–,–,–,–
N=C(N)c1ccc(OCCCCCOc2ccc(C(=N)N)cc2)cc1 [Pentamidine],primarily competitive,< 4 µM and 2.2 µM,–,primarily competitive,–,–,–,–,–,–,–,–,> 15,> 15
